Assay results taken from patent EP4635969A1, “NOVEL GLUCOCORTICOID, METHOD FOR PREPARING SAME, AND USE THEREOF” (Tianjin Pharmaceutical Biotechnology Co., Ltd., priority 2022, dated 2024).
Read-outs that look alike come from different tables or passages of the source.

Key:
[1] = target: T1, glucocorticoid receptor (GR) (Homo sapiens, UniProt P04150); experiment: Assay for agonist activity on glucocorticoid receptor (luciferase reporter, HEK293 cells transfected with pBIND-GR plasmid); assay type: cell-based
T1 sequence (P04150 521-777): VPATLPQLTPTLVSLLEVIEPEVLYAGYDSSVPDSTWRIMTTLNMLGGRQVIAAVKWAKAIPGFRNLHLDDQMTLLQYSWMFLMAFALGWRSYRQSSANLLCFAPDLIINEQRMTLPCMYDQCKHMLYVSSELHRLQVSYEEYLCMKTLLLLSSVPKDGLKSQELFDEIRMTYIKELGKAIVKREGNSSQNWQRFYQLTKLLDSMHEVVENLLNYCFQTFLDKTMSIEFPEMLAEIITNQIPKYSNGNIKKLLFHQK
Procedure, shortened: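 HEK293 cells transfected with pBIND-GR, seeded in phenol red-free DMEM with 5% charcoal-stripped serum, then exposed to compounds in a 10-point, 4-fold dilution series from 10 µM, in duplicate. Luciferase luminescence read after incubation; EC50 from nonlinear fit. Vehicle blank: 0.1% DMSO.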

[2] = Determination of stability in plasma in vitro, human plasma (LC-MS/MS); assay type: in vitro ADME; conditions: same experimental conditions (human and mouse plasma)
Method: Pharmacological Example 3: Determination of Stability in Plasma in Vitro
The stock solution was diluted with acetonitrile to obtain a working solution at a concentration of 100 µ M. The solution should be freshly prepared prior to use and maintained at room temperature during application.
990 µ L of human and mouse plasma (N = 2) were separately pipetted and pre-incubated at 37 °C for 5 min. Then, 10 µ L of the test compound working solution was added and vortexed thoroughly (the final concentration of the test compound was 1 µ M). Immediately, 50 µ L of the plasma sample was added to 150 µ L of ice-cold precipitation agent containing the internal standard and vortexed thoroughly as the 0-time sample. The remaining plasma sample was continuously incubated at 37 °C, and 50 µ L of the plasma sample was aspirated and added to 150 µ L of ice-cold precipitation agent containing the internal standard at preset sampling time points, followed by thorough vortexing. The collected samples were stored in a freezer at -60 to -90 °C until analysis.
The concentration of the test compound was determined by LC-MS/MS, and its degradation was monitored. (semi-quantitative determination was conducted by comparing the peak area of the analyte to that of the internal standard).

[3] = Stability in animal lung tissue homogenate, skin tissue homogenate and aqueous humor; assay type: in vitro ADME
asthma model mice = experiment: Anti-asthma pharmacodynamic experiment: airway hyperresponsiveness (Penh) after methacholine challenge; assay type: in vivo, female BALB/c mice; conditions: for Effects on airway hyperresponsiveness (Penh values) in mice: compared with the model group
Method: Pharmacological Example 4: Pharmacodynamic Experiment on Anti-Asthma
The suspensions were stored at room temperature protected from light until use.
Positive control drug: Budesonide Suspension for Inhalation (specification: 2 mL: 1 mg; AstraZeneca Inc.; Lot No. : 327392) was diluted with injection-grade sodium chloride solution to 0.3 mg/ml as the positive control drug, and stored at room temperature protected from light until use.
Sixty female BALB/c mice underwent a one-week adaptive feeding period. Ten mice were randomly selected as the blank control group, while 50 mice were selected to establish asthma models.
From days 21 to 23 after sensitization, the mice in the model group and drug administration group were exposed to a 30-minute aerosol challenge with 5% OVA, while the mice in the blank control group were exposed to normal saline aerosol for the same duration.
Airway responsiveness was measured in all groups of mice after the last challenge. The mice were placed into a plethysmography chamber, and baseline Penh values were recorded. Subsequently, the mice were challenged with aerosolized methacholine at concentrations from low to high of 0, 6.25, and 12.5 mg/mL, with an aerosol volume of 100 µ L each time for 60 s. […] Penh values were then recorded for 3 min and averaged to compare the airway responsiveness of each group of mice.
Statistical analysis was performed using SPSS software. Measurement data were expressed as mean ± standard deviation. One-way ANOVA was used for intergroup comparisons. For data with homogeneous variance, LSD test was used; for data with heterogeneous variance, Dunnett-t test was used. A value of P < 0.05 was considered statistically significant.

[4] = tested on: dry eye syndrome model New Zealand rabbits; experiment: Dry eye syndrome experiment (benzalkonium chloride model): tear film break-up time; assay type: in vivo, male New Zealand White rabbits; conditions: for tear film break-up time: compared with the model group
[5] = tested on: dry eye syndrome model New Zealand rabbits; experiment: Dry eye syndrome experiment (benzalkonium chloride model): corneal fluorescein sodium staining; assay type: in vivo, male New Zealand White rabbits; conditions: for inflammatory response on the ocular surface / ocular symptoms: compared with the model group
Method: Pharmacological Example 6: Therapeutic Pharmacodynamic Experiment on Dry Eye Syndrome in New Zealand Rabbits
Positive control drug: Fluorometholone Eye Drops (specification: 5 mL/5 mg; Santen Pharmaceutical (CHINA) Co., Ltd.; Lot No.: 1FM6625) was used as the positive control drug and stored at room temperature protected from light until use.
Thirty male New Zealand White rabbits (conventional grade) were prepared. Six rabbits were randomly selected as the blank control group, and the remaining animals were administered 0.1% benzalkonium chloride to the left eye twice daily (morning and evening) , 10 µL/animal each time. […] During the administration, all animals except the blank control group were administered 10 µL of 0.1% benzalkonium chloride to the left eye once daily to maintain dry eye symptoms..
• Test time: D3, D7, D15; • Test animals: All animals were tested before grouping; all enrolled surviving animals were tested after administration; • Test method: 2 µL of 1% Fluorescein sodium was dropped into the conjunctival sac. After 5 s, the excess fluorescein was rinsed with 0.9% normal saline. The conjunctival staining was observed under a slit lamp with cobalt blue diffused light.
The normality and homogeneity of variance were tested by Levene's test. If there was no statistical significance (P > 0.05), one-way analysis of variance (ANOVA) was used for statistical analysis. If ANOVA was statistically significant (P ≤ 0.05), LSD test (parametric method) was used for comparative analysis. If the variance was heterogeneous (P ≤ 0.05), Kruskal-Wallis test was used. If the Kruskal-Wallis test was statistically significant (P ≤ 0.05), Dunnett's test (nonparametric method) was used for comparative analysis.

epidermal layer in rats = experiment: Adverse reactions of continuous dermal administration: thickness of the epidermal layer (H&E sections); assay type: in vivo, SD rats; conditions: for thickness of the epidermal layer after continuous dermal administration: compared with the blank control group; for Epidermal layer thickness (µm): 100 mg cream on the back twice a day for a week (compounds 1 mg/g, Compound Dexamethasone Acetate 0.75 mg/g)
Description: Pharmacological Example 10: Experiment on Adverse Reactions of Continuous Dermal Administration in Rats
Animals: SD rats, SPF grade, with an equal number of males and females, weighing 230-250 g.
Animal grouping: After adaptive feeding, the rats were randomly divided into 4 groups. […] One day before administration, the backs of rats were shaved at an area of 5 cm × 6 cm. […] The rats in the blank control group were applied with the blank matrix of corresponding mass on their backs, twice a day for a consecutive week. Table 21. Animal grouping and drug administration dosages for the experiment on adverse reactions of continuous dermal administration in rats
To examine the effects of continuous administration of the test samples on the epidermal layer, the back skin tissues were stained with hematoxylin and eosin (H&E) (magnification ×40), and the thickness of the epidermal layer was quantitatively measured based on the H&E-stained sections.

[6] = GR agonist EC50 (nM), HEK293 cells transfected with pBIND-GR, luciferase signal
[7] = Nuclear receptor enzyme activity (nM) GR, EC50 of agonist activity, HEK293 reporter cells
[8] = EC50 of agonist activity, HEK293 reporter cells, read-out: Nuclear receptor enzyme activity (nM) GR
[9] = HEK293 cells transfected with pBIND-GR, luciferase signal, read-out: GR agonist EC50
[10] = D3, 1 mg/mL, 50 µL/eye, 3 times a day for 14 days
[11] = D7, 1 mg/mL, 50 µL/eye, 3 times a day for 14 days
[12] = D15, 1 mg/mL, 50 µL/eye, 3 times a day for 14 days

SMILES | EC50 [1, 6] | EC50 [1, 7] | plasma instability [2] | stability in animal lung tissue homogenate, skin tissue homogenate, and aqueous humor [3] | Effects on airway hyperresponsiveness (Penh values) in mice (asthma model mice) | tear film break-up time [4] | inflammatory response on the ocular surface / ocular symptoms [5] | thickness of the epidermal layer after continuous dermal administration (epidermal layer in rats) | EC50 [1, 8] | EC50 [1, 9] | Penh values in mice, Methacholine concentration (mg/ml) 0 (asthma model mice; 0.3 mg/mL, 50 µL intratracheally once daily for 3 days, methacholine 0 mg/ml) | Penh values in mice, Methacholine concentration (mg/ml) 6.25 (asthma model mice; 0.3 mg/mL, 50 µL intratracheally once daily for 3 days, methacholine 6.25 mg/ml) | Penh values in mice, Methacholine concentration (mg/ml) 12.5 (asthma model mice; 0.3 mg/mL, 50 µL intratracheally once daily for 3 days, methacholine 12.5 mg/ml) | Tear film break-up time (s) D3 [4, 10] | Tear film break-up time (s) D7 [4, 11] | Tear film break-up time (s) D15 [4, 12] | Corneal fluorescein sodium staining score D3 [5, 10] | Corneal fluorescein sodium staining score D7 [5, 11] | Corneal fluorescein sodium staining score D15 [5, 12] | Epidermal layer thickness (µm) (epidermal layer in rats)
C[C@]12C=CC(=O)C=C1CC[C@H]1[C@@H]3C[C@H]4OC(c5ccc(COC6CCOC6=O)cc5)O[C@@]4(C(=O)CO)[C@@]3(C)C[C@H](O)[C@@]12Cl (stereo partly drawn) [Compound 22, (6aS,6bR,7S,8aS,8bS,11aR,12aS,12bS)-6b-Chloro-7-hydroxy-8b-(2-hydroxyacetyl)-6a,8a-dimethyl-10-(4-(((2-oxotetrahydrofuran-3-yl)oxy)methyl)phenyl)-1,2,6a,6b,7,8,8a,8b,11a,12,12a,12b-do decahydro-4H-naphtho[2',1':4,5]indeno[1,2-d][1,3]dioxol-4-one] | 0.55 nM | 0.55 nM | exhibited the characteristic of plasma instability | relatively stable | significantly decreased the Penh values in mice | significantly increased the tear film break-up time | significantly alleviated the ocular symptoms in dry eye syndrome model New Zealand rabbits | no significant changes in the thickness of the epidermal layer observed |  |  |  |  |  |  |  |  |  |  |  | 
C[C@]12C=CC(=O)C=C1CC[C@H]1[C@@H]3C[C@H]4OC(c5ccc(CSC6CCOC6=O)cc5)O[C@@]4(C(=O)CO)[C@@]3(C)C[C@H](O)[C@@]12Cl (stereo partly drawn) [Compound 23, (6aS,6bR,7S,8aS,8bS,11aR,12aS,12bS)-6b-Chloro-7-hydroxy-8b-(2-hydroxyacetyl)-6a,8a-dimethyl-10-(4-(((2-oxotetrahydrofuran-3-yl)thio)methyl)phenyl)-1,2,6a,6b,7,8,8a,8b,11a,12,12a,12b-do decahydro-4H-naphtho[2',1':4,5]indeno[1,2-d][1,3]dioxol-4-one] |  |  | exhibited the characteristic of plasma instability | relatively stable | significantly decreased the Penh values in mice | significantly increased the tear film break-up time on day 15 | significantly inhibited the inflammatory response on the ocular surface on day 15 | no significant changes in the thickness of the epidermal layer were observed | 0.21 nM | 0.21 nM | 1.12 ± 0.30 | 1.55 ± 0.29 | 1.84 ± 0.38 | 45.67 ± 13.69 s | 49.33 ± 8.91" s | 50.67 ± 10.41" s | 2.17 ± 0.98 | 1.0 ± 0.98 | 1.0 ± 0.63" | 24.3 ± 1.1 µm
C[C@]12C=CC(=O)C=C1[C@@H](F)C[C@H]1[C@@H]3C[C@H]4OC(c5ccc(CSC6CCOC6=O)cc5)O[C@@]4(C(=O)OCF)[C@@]3(C)C[C@H](O)[C@@]12F (stereo partly drawn) [Compound 36, Fluoromethyl (2S,6aS,6bR,7S,8aS,8bS,11aR,12aS,12bS)-2,6b-difluoro-7-hydroxy-6a,8a-dimethyl-4-oxo-10-(4-( ((2-oxotetrahydrofuran-3-yl)thio)methyl)phenyl)-1,2,4,6a,6b,7,8,8a,11a,12,12a,12b-dodecahydro-8bH-naphtho[2',1':4,5]indeno[1,2-d][1,3]dioxole-8b-carboxylate] | 0.12 nM | 0.12 nM | exhibited the characteristic of plasma instability | relatively stable | significantly decreased the Penh values in mice | significantly increased the tear film break-up time | significantly alleviated the ocular symptoms in dry eye syndrome model New Zealand rabbits | no significant changes in the thickness of the epidermal layer observed |  |  |  |  |  |  |  |  |  |  |  | 
C[C@]12C=CC(=O)C=C1CC[C@H]1[C@@H]3C[C@H]4OC(c5ccc(CSC6CCOC6=O)cc5)O[C@@]4(C(=O)CO)[C@@]3(C)C[C@H](O)[C@@]12F (stereo partly drawn) [Compound 17, (6aS,6bR,7S,8aS,8bS,11aR,12aS,12bS)-6b-Fluoro-7-hydroxy-8b-(2-hydroxyacetyl)-6a,8a-dimethyl-10-(4-(((2-oxotetrahydrofuran-3-yl)thio)methyl)phenyl)-1,2,6a,6b,7,8,8a,8b,11a,12,12a,12b-do decahydro-4H-naphtho[2',1':4,5]indeno[1,2-d][1,3]dioxol-4-one] |  |  | exhibited the characteristic of plasma instability | relatively stable | significantly decreased the Penh values in mice | significantly increased the tear film break-up time | significantly alleviated the ocular symptoms in dry eye syndrome model New Zealand rabbits | no significant changes in the thickness of the epidermal layer were observed | 0.3 nM | 0.3 nM |  |  |  |  |  |  |  |  |  | 23.5 ± 3.5 µm
C[C@]12C=CC(=O)C=C1CC[C@H]1[C@@H]3C[C@H]4OC(c5ccc(CSC6CCOC6=O)nc5)O[C@@]4(C(=O)CO)[C@@]3(C)C[C@H](O)[C@@]12Cl (stereo partly drawn) [Compound 48, (6aS,6bR,7S,8aS,8bS,11aR,12aS,12bS)-6b-Chloro-7-hydroxy-8b-(2-hydroxyacetyl)-6a,8a-dimethyl-10-(6-(((2-oxotetrahydrofuran-3-yl)thio)methyl)pyridin-3-yl)-1,2,6a,6b,7,8,8a,8b,11a,12,12a,12 b-dodecahydro-4H-naphtho[2',1':4,5]indeno[1,2-d][1,3]dioxol-4-one] | 0.37 nM |  | exhibited the characteristic of plasma instability | relatively stable | significantly decreased the Penh values in mice | significantly increased the tear film break-up time | significantly alleviated the ocular symptoms in dry eye syndrome model New Zealand rabbits | no significant changes in the thickness of the epidermal layer observed |  |  |  |  |  |  |  |  |  |  |  | 
